Reference: patent US11236380B2, “Methods for predicting kinase inhibitor resistance” (Research Development Foundation, priority 2017, dated 2022)

How the values were obtained:
[1] = tested on: BTK (217-655) error-prone mutant library; assay: BTK error-prone library screening by FACS in presence of inhibitor; type: cell-based, human
Protocol: A12 polymerase, an error-prone variant of KOD polymerase, was used for amplification to generate a pool of mutants. Vector was prepared by digestion with XhoI and XbaI. PCR product and digested vector were gel extracted and drop dialyzed in ddH2O on VSWP membranes for one hour. […] Library size was estimated by colony counts from dilution series of transformed cells plated on SD-UT agar plus 100 μg/mL G418. Sanger sequencing was carried out on 15 randomly selected clones, as well as high throughput sequencing (described below) on an aliquot of the entire sample.
3×10^8 cells were washed with TBS+BSA for each library and then stained with anti-His6-FITC and anti-pY-APC for 30 minutes at 4° C. Cells were washed three times to remove unbound antibody.

[2] = tested on: ABL kinase error-prone mutant library; assay: ABL error-prone library screening by FACS in presence of inhibitor; type: cell-based, human; details: inhibitor-treated cultures (25 μM)
Protocol: 5×10^7 cells were washed with TBS+BSA then stained with anti-His6-FITC and anti-pY-PE for 30 minutes at 4° C. Cells were washed three times to remove unbound antibody. Wild-type ABL with and without inhibitor was used to determine the location of the sorting gates. PE+/FITC+ cells were sorted and re-sorted, then transferred to SD-UT medium for growth at 30° C. until dense, 1-2 days depending on number of cells collected (FIG. 1B).

CC#CC(=O)N1CCC[C@H]1c1nc(-c2ccc(C(=O)Nc3ccccn3)cc2)c2c(N)nccn12 [Acalabrutinib]
fraction of APC-positive cells ([1]; 1000 μM Acalabrutinib treated cultures, pre-sort round 3 pool): 23.8%
fraction of APC-positive cells ([1]; 1000 μM Acalabrutinib treated cultures, unsorted pool): 1.63%

C=CC(=O)N1CCC[C@@H](n2nc(-c3ccc(Oc4ccccc4)cc3)c3c(N)ncnc32)C1 [Ibrutinib]
fraction of APC-positive cells ([1]; 400 nM Ibrutinib-treated cultures, pre-sort round 3): 40.60%
fraction of APC-positive cells ([1]; 400 nM Ibrutinib-treated cultures, unsorted pool): 0.7%

Cc1ccc(C(=O)Nc2ccc(CN3CCN(C)CC3)c(C(F)(F)F)c2)cc1C#Cc1cnc2cccnn12 [Ponatinib]
fraction of PE-positive cells ([2]; pre-sort 4 pool): 57.9%
fraction of PE-positive cells ([2]; unsorted pool): 0.31%
